These results are taken from ChEMBL document CHEMBL2074206, “Uraemic toxins induce proximal tubular injury via organic anion transporter 1-mediated uptake” (Br J Pharmacol, 2002).

SMILES strings stand for the structures.

The target of the assay is T1, Solute carrier family 22 member 6 (Homo sapiens, UniProt Q4U2R8).
T1 sequence (Q4U2R8 whole entry): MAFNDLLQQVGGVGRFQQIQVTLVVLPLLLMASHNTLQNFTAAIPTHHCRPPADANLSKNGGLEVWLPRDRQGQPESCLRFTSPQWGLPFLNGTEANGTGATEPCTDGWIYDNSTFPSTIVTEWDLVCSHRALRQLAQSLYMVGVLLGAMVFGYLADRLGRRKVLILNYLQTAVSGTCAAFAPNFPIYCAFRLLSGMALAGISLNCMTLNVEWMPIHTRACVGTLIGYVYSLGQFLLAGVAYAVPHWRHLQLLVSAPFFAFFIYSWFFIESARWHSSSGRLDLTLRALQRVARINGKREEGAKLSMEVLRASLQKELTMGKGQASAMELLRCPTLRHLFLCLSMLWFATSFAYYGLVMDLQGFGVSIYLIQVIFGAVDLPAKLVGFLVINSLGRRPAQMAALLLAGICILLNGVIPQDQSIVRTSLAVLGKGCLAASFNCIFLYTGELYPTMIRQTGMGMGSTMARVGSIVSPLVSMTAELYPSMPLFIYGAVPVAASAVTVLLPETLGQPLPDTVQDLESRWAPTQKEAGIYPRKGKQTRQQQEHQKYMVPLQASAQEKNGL
The assay is described as follows: TP_TRANSPORTER: inhibition of PAH uptake in OAT1-expressing OK cells. It counts as functional, cell-based.

As for `O=C(O)CNC(=O)c1ccc(O)cc1`, inhibition was half-maximal at 25 µM (IC50).
